# Measurements from the supplement of paper PMC10307832.
# Compound: COc1cccc2cc(-c3nc([C@H]4CC[C@H](C(=O)O)CC4)n4ncnc(N)c34)[nH]c12 [OSI-027] + CS(=O)(=O)N1CCN(Cc2cc3nc(-c4cccc5[nH]ncc45)nc(N4CCOCC4)c3s2)CC1 [Pictilisib] (partner 1 µM)
# Test: relative viability (nuclei count vs DMSO), 5 days (fraction); higher = more cells survive
# Settings: first compound 0.03162 µM
# Outline: (§1)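 Relative viability was taken as the ratio of nuclei in treated wells to nuclei in vehicle wells. Lung cancer cell lines in 1536-well plates received compounds by pin tool one day after seeding, either one drug alone or a fixed anchor-drug dose plus five library-drug doses (not always all listed) in √10 steps. Nuclei were counted on 4× images after 5 days of treatment, and values are medians of duplicate plates.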
row,Cell Line,relative viability
1,PC-14,0.719
2,NCI-H1299,0.627
3,NCI-H1437,0.4
4,HOP-62,0.76
5,HCC-44,0.572
6,BEN,0.472
7,LOU-NH91,0.555
8,NCI-H661,0.392
9,PC-3 [JPC-3],0.675
10,SW 1573,0.436
11,LK-2,0.474
12,NCI-H2405,0.345
13,NCI-H1703,0.242
14,NCI-H1993,0.906
15,ChaGo-K-1,1.02
16,NCI-H1355,0.399
17,HCC-366,0.154
18,NCI-H1915,0.988
19,NCI-H838,0.434
20,Calu-6,0.762
21,NCI-H1563,0.625
22,CAL-12T,0.394
23,EBC-1,0.359
24,NCI-H2228,0.281
25,IA-LM,0.176

# Same assay, conditions: first compound 0.1 µM
row,Cell Line,relative viability
1,NCI-H2126,0.455
2,EPLC-272H,0.296
3,NCI-H1755,0.346
4,NCI-H2023,0.181
5,NCI-H1650,0.474
6,NCI-H1793,0.276
7,H3255,0.441
8,NCI-H1975,0.312
9,PC-14,0.722
10,NCI-H1299,0.548
11,NCI-H1437,0.282
12,HOP-62,0.467
13,HCC-44,0.481
14,BEN,0.371
15,LOU-NH91,0.489
16,NCI-H661,0.344
17,NCI-H1651,0.504
18,PC-3 [JPC-3],0.697

row,Cell Line,relative viability
1,SW 1573,0.458
2,LK-2,0.305
3,NCI-H2405,0.292
4,NCI-H1703,0.244
5,NCI-H1993,0.86
6,ChaGo-K-1,0.356
7,NCI-H1355,0.326
8,HCC-366,0.165
9,NCI-H1915,0.78
10,NCI-H838,0.294
11,Calu-6,0.655
12,NCI-H1563,0.604
13,CAL-12T,0.315
14,EBC-1,0.299
15,NCI-H2228,0.474
16,A549,0.276
17,IA-LM,0.181

# Same assay, conditions: first compound 0.3162 µM
row,Cell Line,relative viability
1,NCI-H2126,0.419
2,EPLC-272H,0.316
3,NCI-H1755,0.306
4,NCI-H2023,0.155
5,NCI-H1650,0.432
6,NCI-H1793,0.222
7,H3255,0.379
8,NCI-H1975,0.178
9,PC-14,0.544
10,NCI-H1299,0.338
11,NCI-H1437,0.222
12,HOP-62,0.674
13,HCC-44,0.32
14,BEN,0.328
15,LOU-NH91,0.472
16,NCI-H661,0.254
17,NCI-H1651,0.464

row,Cell Line,relative viability
1,PC-3 [JPC-3],0.62
2,SW 1573,0.357
3,LK-2,0.251
4,NCI-H2405,0.228
5,NCI-H1703,0.231
6,NCI-H1993,0.798
7,ChaGo-K-1,0.492
8,NCI-H1355,0.271
9,HCC-366,0.124
10,NCI-H1915,0.716
11,NCI-H838,0.241
12,Calu-6,0.544
13,NCI-H1563,0.631
14,CAL-12T,0.299
15,EBC-1,0.216
16,A549,0.14
17,IA-LM,0.119

# Same assay, conditions: first compound 1 µM
row,Cell Line,relative viability
1,NCI-H2126,0.407
2,EPLC-272H,0.215
3,NCI-H1755,0.281
4,NCI-H2023,0.0973
5,NCI-H1650,0.347
6,NCI-H1793,0.179
7,H3255,0.24
8,NCI-H1975,0.218
9,PC-14,0.171
10,NCI-H1299,0.242
11,NCI-H1437,0.214
12,HOP-62,0.254
13,HCC-44,0.365
14,BEN,0.272
15,LOU-NH91,0.447
16,NCI-H661,0.268
17,NCI-H1651,0.282
18,PC-3 [JPC-3],0.521

row,Cell Line,relative viability
1,SW 1573,0.205
2,LK-2,0.23
3,NCI-H2405,0.242
4,NCI-H1703,0.201
5,NCI-H1993,0.691
6,ChaGo-K-1,0.381
7,NCI-H1355,0.208
8,HCC-366,0.0569
9,NCI-H1915,0.572
10,NCI-H838,0.297
11,Calu-6,0.319
12,NCI-H1563,0.673
13,CAL-12T,0.294
14,EBC-1,0.238
15,NCI-H2228,0.249
16,A549,0.142
17,IA-LM,0.107

# Compound: COc1cccc2cc(-c3nc([C@H]4CC[C@H](C(=O)O)CC4)n4ncnc(N)c34)[nH]c12 [OSI-027] + O=C(c1cc(Cc2n[nH]c(=O)c3ccccc23)ccc1F)N1CCN(C(=O)C2CC2)CC1 [Olaparib] (partner 8 µM)
# Test: as above
# Settings: first compound 0.01 µM
# Outline: as §1
row,Cell Line,relative viability
1,NCI-H2126,0.939
2,EPLC-272H,0.714
3,NCI-H1755,0.874
4,NCI-H2023,0.455
5,NCI-H1650,0.794
6,NCI-H1793,0.866
7,NCI-H2342,0.522
8,H3255,0.595
9,NCI-H1975,0.803
10,PC-14,0.228
11,NCI-H1299,1.02
12,NCI-H1437,0.646
13,HOP-62,0.605
14,HCC-44,1.06
15,BEN,1.15
16,LOU-NH91,0.91
17,NCI-H661,0.852
18,NCI-H1651,0.199
19,PC-3 [JPC-3],1.13
20,SW 1573,0.485
21,LK-2,0.611
22,NCI-H2405,0.886
23,NCI-H1703,0.424
24,NCI-H1648,1.06
25,NCI-H1993,1.03
26,ChaGo-K-1,0.429
27,NCI-H1355,0.702
28,HCC-366,0.331
